Data on eleven molecules can be found in US9908853B2, “Inhibitors of peptidyl arginine deiminase (PAD) enzymes and uses thereof” (University Health Network, priority 2012, dated 2018).

One data set deals with T1, human PAD1 (Homo sapiens, UniProt Q9ULC6).
T1 sequence (Q9ULC6 1-663): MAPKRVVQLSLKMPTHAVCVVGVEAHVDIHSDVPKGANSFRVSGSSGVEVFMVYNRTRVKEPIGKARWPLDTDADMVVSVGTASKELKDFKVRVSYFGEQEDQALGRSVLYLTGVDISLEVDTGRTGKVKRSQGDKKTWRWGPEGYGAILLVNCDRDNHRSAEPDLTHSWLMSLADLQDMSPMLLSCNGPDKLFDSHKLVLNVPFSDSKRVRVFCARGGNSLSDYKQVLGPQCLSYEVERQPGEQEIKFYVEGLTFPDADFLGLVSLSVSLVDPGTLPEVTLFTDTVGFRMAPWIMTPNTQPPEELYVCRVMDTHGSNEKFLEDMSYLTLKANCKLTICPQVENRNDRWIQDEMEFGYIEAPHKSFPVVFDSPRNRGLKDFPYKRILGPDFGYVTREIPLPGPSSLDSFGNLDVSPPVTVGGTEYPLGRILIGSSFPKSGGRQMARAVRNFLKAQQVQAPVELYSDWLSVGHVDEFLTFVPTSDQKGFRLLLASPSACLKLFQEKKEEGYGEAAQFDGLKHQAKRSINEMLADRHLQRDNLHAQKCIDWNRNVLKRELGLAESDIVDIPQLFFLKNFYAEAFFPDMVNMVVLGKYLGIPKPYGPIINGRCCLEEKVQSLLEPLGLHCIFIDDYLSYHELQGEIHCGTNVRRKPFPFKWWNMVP
The experiment in a line: Inhibition of PAD1 enzyme activity (BAEE substrate, colorimetric, 530 nm). It is filed as biochemical. To be noted: for Ki: Table 2, read-out: PAD Ki ± SE (μM), PAD1. As for the experimental part:
Control reaction contained no inhibitor. Enzyme was added to initiate the reaction. The reaction samples were incubated at 37° C. for 30 min. Color reagent was added and the samples were boiled for 15 min. Samples were cooled on ice, further processed, and the absorbance was measured at 530 nm. Remaining activity was calculated as a percentage of the uninhibited samples.

Data set [1] can be described thus: In vitro cellular toxicity to CHO cells. The data set is classed as cell-based. The conditions noted are these: Chinese hamster, read-out: CHO cells IC50 ± SE.
A further data set concerns the target human PAD4 (Homo sapiens, UniProt Q9UM07). As to the kind of experiment: Inhibition of PAD4 enzyme activity (BAEE substrate, colorimetric, 530 nm). It is filed as biochemical.
A further data set concerns the target rabbit PAD2 (Oryctolagus cuniculus, UniProt G1T837). The experiment in a line: Inhibition of PAD2 enzyme activity. The data set is classed as biochemical. The conditions noted are these: for IC50: rabbit PAD2, Table 1.
Another data set relates to mice. As to the kind of experiment: Mouse toxicity studies. The data set is classed as in vivo.
The test system of a further data set is MOG-EAE mouse model. The experiment in a line: MOG-EAE mouse model, compound of Formula (Ia). It is filed as in vivo, C57BL/6 mice. As for the experimental part: On day 8 after the induction of EAE, mice received 2 mg of the compound of Formula ([…].) every other day until day 23. […] Mice were sacrificed on day 24 (i.e. after 2 weeks of treatment) and anti-CD3 staining on spinal cord and brain samples was undertaken.

For another data set, the system named is ND4 mouse. The conditions noted are these: cited from earlier work.
The subject of data set [2] is PAD enzyme activity (i.e. PAD2 and PAD4). The conditions noted are these: after addition of 2CA to human brain extracts; cited from earlier work.
In a further data set the test system is MOG-EAE model. The conditions noted are these: cited from earlier work.
[3] abbreviates: Table 2, read-out: PAD Ki ± SE (μM), PAD4.
The mark [4] stands for this setting: Example 8, read-out: equilibrium inhibition constant Ki against PAD2.

Like-named read-outs stand apart in the source and are kept apart here.

rabbit PAD2, sequence (G1T837 1-665): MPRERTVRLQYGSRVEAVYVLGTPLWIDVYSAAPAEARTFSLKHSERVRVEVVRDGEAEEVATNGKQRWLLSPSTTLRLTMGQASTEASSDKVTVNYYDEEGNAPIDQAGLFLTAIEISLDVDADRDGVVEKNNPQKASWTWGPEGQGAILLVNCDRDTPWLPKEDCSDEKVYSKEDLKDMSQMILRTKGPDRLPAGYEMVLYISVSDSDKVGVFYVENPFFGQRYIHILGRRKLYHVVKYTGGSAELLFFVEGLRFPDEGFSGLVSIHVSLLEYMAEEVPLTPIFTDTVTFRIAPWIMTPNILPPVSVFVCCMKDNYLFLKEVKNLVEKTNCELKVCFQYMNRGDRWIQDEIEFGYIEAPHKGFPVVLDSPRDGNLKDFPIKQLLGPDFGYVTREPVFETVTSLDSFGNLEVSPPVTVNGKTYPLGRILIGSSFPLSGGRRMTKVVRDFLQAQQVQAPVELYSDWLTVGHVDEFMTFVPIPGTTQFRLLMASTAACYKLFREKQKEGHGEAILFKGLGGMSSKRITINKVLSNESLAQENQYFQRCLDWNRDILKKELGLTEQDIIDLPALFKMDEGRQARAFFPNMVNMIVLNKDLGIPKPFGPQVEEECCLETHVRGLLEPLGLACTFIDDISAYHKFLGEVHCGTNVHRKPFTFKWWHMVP
human PAD4, sequence (Q9UM07 whole entry): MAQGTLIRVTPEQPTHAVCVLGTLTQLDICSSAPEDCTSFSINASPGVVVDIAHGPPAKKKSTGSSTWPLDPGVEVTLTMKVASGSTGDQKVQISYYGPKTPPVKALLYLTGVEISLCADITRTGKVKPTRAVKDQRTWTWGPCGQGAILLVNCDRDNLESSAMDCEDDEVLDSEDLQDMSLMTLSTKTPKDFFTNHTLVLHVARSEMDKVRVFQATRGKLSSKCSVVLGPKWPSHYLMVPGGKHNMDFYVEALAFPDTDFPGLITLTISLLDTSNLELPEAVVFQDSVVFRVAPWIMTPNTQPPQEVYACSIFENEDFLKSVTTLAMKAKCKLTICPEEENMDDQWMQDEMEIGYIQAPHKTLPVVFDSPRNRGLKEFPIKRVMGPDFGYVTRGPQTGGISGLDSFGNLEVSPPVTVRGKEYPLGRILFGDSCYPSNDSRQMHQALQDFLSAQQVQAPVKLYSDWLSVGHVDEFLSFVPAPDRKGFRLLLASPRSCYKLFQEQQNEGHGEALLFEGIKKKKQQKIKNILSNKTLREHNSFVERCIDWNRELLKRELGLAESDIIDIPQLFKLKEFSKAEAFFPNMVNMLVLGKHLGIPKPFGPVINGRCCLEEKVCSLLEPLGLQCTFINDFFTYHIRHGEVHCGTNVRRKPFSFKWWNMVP

Usually Ki stands for a dissociation constant, usually derived from enzyme kinetics or from competition with a known ligand. A word on the IC50: it is the midpoint of a concentration-inhibition curve. On to `CC1(C)NC(=O)N(CCNCCN)C1=O` [I(j)], for which the values for the Ki on human PAD1 and at human PAD4 (setting [3]) were 55.5 ± 12.3 µM and 52 ± 34.1 µM, respectively. Also, the IC50 in data set [1] is 2690 ± 175 µM.

Regarding `CC1(C)NC(=O)N(CCCN)C1=O` [I(k)], the Ki is 105 ± 22.1 µM on human PAD1 and 384 ± 41 µM at human PAD4 (setting [3]).

As for `CC(C)(C)OC(=O)CC1(C)NC(=O)N(CN2CCNCC2)C1=O` (centres unmarked) [Formula (Ic), tert-Butyl-[4-methyl-2,5-dioxo-1-(piperazin-1-ylmethyl)imidazolidin-4-yl]acetate], on rabbit PAD2 (setting [4]), the Ki stood at 0.65 µM. The molecule further displayed an IC50 on rabbit PAD2 of 16.8 ± 7 µM.

As a reminder, the inhibition is the percentage by which the read-out fell short of the control. As for `CC1(C)NC(=O)N(CN2CCNCC2)C1=O` [Formula (Ia)], the IC50 on human PAD1 (Table 1) was 763 µM; at human PAD4, 48.3 ± 7.4 µM; at human PAD4 (read-out: IC50 (μM), PAD4, human PAD4, Table 1, varies with salt form and batch of the enzyme), not above 3820 µM. The general toxicity result in the data set on mice (10 mg/mouse for 5 days) and in the data set on mice (single 20 mg/mouse dose) was “no general toxicity” in each case. In addition, the Ki at rabbit PAD2 was determined as 0.93 µM; at human PAD4 it was 7.4 µM. Also, on human PAD4 (read-out: Inhibition of the enzyme activity), the inhibition at 30 µM came to 78%. Also, the clinical scores in the data set on MOG-EAE mouse model (2 mg b.i.d. i.p. every other day, day 8 to day 23, control group higher than 2) was approximately 1. Besides, the “CD3 markers in brain” value in the data set with MOG-EAE mouse model (anti-CD3 staining, sacrificed day 24, untreated 4.8±0.19) is reported as 3.8±0.23 /mm^2. The “PAD activity in treated brain samples” value in the data set with MOG-EAE mouse model (sacrificed day 24) is “much reduced”.

Turning to `CC1(C)NC(=O)N(CCn2ccnc2)C1=O` [I(g)], the Ki came out at 110 ± 4 µM on human PAD1 and 4 ± 1.7 µM at human PAD4 (setting [3]). Moreover, the IC50 in [1] amounted to 1990 ± 823 µM.

Consider `CC1(C)NC(=O)N(CCN)C1=O` [I(i)], for which the values for the Ki on human PAD1 and on human PAD4 (setting [3]) were 117 ± 41.1 µM and 317 ± 32.8 µM, respectively. The IC50 in [1] is 5840 ± 2370 µM.

On to `N=C(N)CCl` [Compound 2CA, 2-chloroacetamidine], for which, in the data set with ND4 mouse (5 mg/kg i.p. every other day, from 3.5 months up to 6 months of age), the “disease progression in ND4 mice, treatment after early onset” value is reported as “did not show disease progression”. Moreover, in the data set on ND4 mouse (5 mg/kg i.p. every other day, started at 2 months of age), the “disease in ND4 mice, treatment before onset” value was “essentially prevented the disease”. In addition, in the data set with ND4 mouse (ND4 mice, right after cessation of treatment at 6 months), the “PAD activity in brain” value is “attenuated”. In addition, the “deaths in the treatment groups” value in the data set on ND4 mouse (ND4 mice, until 6 months of age) is listed as “none died”. In addition, in the data set on ND4 mouse (treated ND4 mice, healthy littermates 0.74+0.13, ND4 0.96+0.3), the “G-ratio (axon diameter/fiber diameter), optic nerve” value is given as 0.9+0.15. Also, in [2], the “PAD activity in NAWM extracts” value is “declined”. For the same molecule, in the data set on MOG-EAE model (5 mg/kg i.p. every other day starting day 9), the “survival by day 30” value is listed as approximately 50%. In addition, in the data set on MOG-EAE model (EAE mice), the “PAD activity in brain white matter” value is recorded as “effectively attenuated” and the “PAD activity in spinal cord” value is “reductions to normal levels”. Moreover, the relapse entry in the data set on MOG-EAE model (treated group) is listed as “No relapse”. The disease lethality result in the data set on MOG-EAE model (treatment started before immunization) is reported as “zero”.

Take `CN1CCN(CN2C(=O)NC(C)(C)C2=O)CC1` [I(e)]: the values for the Ki on human PAD1 and at human PAD4 (setting [3]) were 115 ± 5.5 µM and 45.6 ± 9 µM, respectively. In addition, the IC50 in data set [1] was 143 ± 4 µM.

For `CCOC(=O)CC1(C)NC(=O)N(CN2CCNCC2)C1=O` (centres unmarked) [Formula (Ib), Ethyl [4-methyl-2,5-dioxo-1-(piperazin-1-ylmethyl)imidazolidin-4-yl]acetate], at rabbit PAD2 (setting [4]), the Ki was 0.46 µM. In addition, the IC50 came out at 12.3 ± 4.8 µM at rabbit PAD2; 36 ± 18 µM on human PAD4 (human PAD4, Table 1, varies with salt form and batch of the enzyme, read-out: IC50 (μM), PAD4).

In the case of `CC1(C)NC(=O)N(CCNCC(N)=O)C1=O` [I(h)], the Ki on human PAD1 amounted to 33.6 ± 2.6 µM; on human PAD4 (setting [3]), 21.8 ± 7.1 µM. Also, on human PAD4, the “Inhibition of PAD4, in words” value is reported as “good activity”.

With `CC1(C)NC(=O)N(CCCNCCN)C1=O` [I(l)], the values for the Ki on human PAD1 and on human PAD4 (setting [3]) were 42.9 ± 5 µM and 123 ± 14.7 µM, respectively. Besides, in data set [1], the IC50 came out at 16700 ± 31600 µM.
